From patent publication EP3771487A1, “METHOD FOR THE SIMULTANEOUS DETERMINATION OF VARIOUS ANALYTES IN AN ENVIRONMENTAL SAMPLE AND / OR AN AGRICULTURAL RAW MATERIAL BASED ON CORE-SHELL MICROPARTICLES” (Bundesrepublik Deutschland, vertreten durch den …, priority 2019, dated 2021)

What was measured:
anti-ILA Antiserum [1] = assay: SAFIA (indirect competitive particle-based suspension array fluorescence immunoassay), ILA channel; assay type: binding, Kaninchen; settings: for Molare Kreuzreaktivität ILA (SAFIA): method of Abraham, anti-ILA antiserum
Description: (§1) Indirekt kompetitiver partikelbasierter Immunoassay: Alle Immunoassays wurden in schwarzen, nicht-bindenden Mikrotiterplatten mit flachem Boden (Greiner Bio-One) durchgeführt. Zum Verdünnen der Suspension der Mikropartikel (Beads) und der biochemischen Reagenzien wurde TRIS-gepufferte Salzlösung (10 mM Tris (hydroxymethyl)aminomethan, 150mM NaCl, pH = 8,5) verwendet. Zunächst wurden 50 µL der Probe oder des Standards und 50 µl einer Mischung der primären (prim.) Antikörper anti-CAF (272 µg/L), anti-CBZ (350 µg/L), anti-DCF (20 µg/L), anti-OTA (50 ng/L), anti-ZON (250µg/L) und anti-ILA (Verdünnung des (polyklonalen) Antiserums: 1:10.000) während 5 Minuten auf einem Kreisschüttler (Titra-max 101, Heidolph) bei 750 U/min geschüttelt. Zur Kalibrierung wurde eine 8-Punkt Verdünnungsserie eines Mischstandards jedes Analyten umfassend Konzentrationen von 10.000 µg/L bis 1 ng/L verwendet, der durch serielle Verdünnung einer methanolischen Stammlösung von 1 mg/mL jedes einzelnen Analyten mit ultrareinem Wasser hergestellt worden war. Danach wurden 20 µL einer Mischung der fluoreszenzkodierten, Hapten-gekoppelten Mikropartikel (Mikropartikel) zugesetzt und für weitere 5 min geschüttelt. Um ein Messsignal der gebundenen Antikörper zu erhalten, wurden 100 µL Alexa Fluor™488 Ziege anti-mouse (und anti-Kaninchen) IgG(H+L), je 2 µg/mL Antikörper (dye 2 red-kodierte Partikel), oder Alexa Fluor™647 Ziege anti-Maus (und anti-Kaninchen) IgG(H+L), je 2 µg/ml Antikörper (dye 1 green kodierte Partikel) den Kern/Schale-Partikeln zugesetzt und für 15 min inkubiert.
(§2) Abschließend wurden, um den Assay zu stoppen, 100 µL einer 6%-igen Formaldehyd-Lösung (aus 37% HCHO/10-15% MeOH Stammlösung, (w/w)), 2% MeOH und 0.01% SDS in PBS zugesetzt und für mindestens 10 min inkubiert. Die Mischung jedes Kavität wurde in einem BD Accuri C6 oder BD AccuriC6 plus Durchflusszytometer bei einer Flussrate von 66 µL/min während 30 s analysiert, wobei ein Schwellwert von 80.000 a.u. am FSC Detektor und ein Probeninjektionsport (SIP)- Reinigungszyklus zwischen den einzelnen Durchläufen eingeschoben wurde, um ein Verschleppen (Übertrag) zu verhindern. Standards und Proben wurden zufällig über die Mikrotiterplatte verteilt angeordnet, um einen Einfluss von Signaldrift und Randeffekte möglichst auszuschließen. Zum Testen der Bindungs-Selektivität wurde jeder Antikörper separat mit jedem haptenmodifizierten (d.h. Haptengekoppeltem) Set der verwendeten Kern/Schale-Mikropartikel inkubiert. Die hier als Fixierlösung verwendete Lösung umfasst bevorzugt Formaldehyd im Konzentrationsbereich 1-10 % vol/vol), Methanol (1-10 % vol/vol) und Natriumdodecylsulfat (0,001-10 % m/m). Statt Formaldehyd können auch andere Aldehyde mit quervernetzenden Eigenschaften (z.B. Glyoxal, Glutarladehyd, Malondialdehyd, Dipalaldehyd) eingesetzt werden. Statt Natriumdodecylsulfat können andere Detergenzien (z.B. Tween20, TitronX, Genapol, CTAB) verwendet werden.
(§3) Datenbehandlung: Alle zytometrischen Daten wurden zunächst nach Streuwerten gegated (FSC/SSC (gate "size": vgl. Fig. 2E) um Partikelaggregate von der Berechnung auszuschließen. Danach wurden vier Gates am FSC/FL-4 (dye 2 red kodierte Partikel, Fig. 2F) oder FSC/FL-1 (dye 1 green kodierte Partikel) verwendet, um die Partikel zu dekodieren und die Analyt-bezogene mittlere Fuoreszenzintensität zu berechnen (vgl. Fig. 2G). Mittelwerte und Standardabweichungen von Wiederholungsmessungen wurden gegen die Konzentration der entsprechenden Analyte auf einer logarithmischen Skale abgetragen. Die von Rodbard eingeführte (Rodbard, D. Biometrics 1975, 31, 599-600) Vier-Parameter-Eichkurve wurde nach der Methode der kleinsten Fehlerquadrate mittels Origin® ver. 9 Grafik-Software gefittet. Ausreißer wurden mittels Grubbs Test bei einem SignifikanzNiveau α = 0,05 identifiziert und eliminiert. Welch's t-Test wurde mit einem Signifikanzniveau von α = 0,05 unter Zuhilfenahme von Origin® 9 verwendet. […]

[2] = tested on: anti-CAF Antikörper (mAb); settings: anti-CAF antibody; cited from earlier work
anti-DCF mAb [3] = assay: SAFIA (indirect competitive particle-based suspension array fluorescence immunoassay), DCF channel; assay type: binding, Maus; settings: for Molare Kreuzreaktivität DCF (SAFIA): method of Abraham, anti-DCF antibody
Description: as §1, §2, §3

anti-CBZ mAb [4] = assay: SAFIA (indirect competitive particle-based suspension array fluorescence immunoassay), CBZ channel; assay type: binding, Maus; settings: for Molare Kreuzreaktivität CBZ (SAFIA): method of Abraham, anti-CBZ antibody
Description: as §1, §2, §3

[5] = tested on: anti-CAF Antikörper (mAb); assay: SAFIA (indirect competitive particle-based suspension array fluorescence immunoassay), CAF channel; assay type: binding, Maus; settings: for Molare Kreuzreaktivität CAF (SAFIA): method of Abraham, anti-CAF antibody
Description: as §1, §2, §3

anti-CBZ mAb [6] = settings: anti-CBZ antibody; cited from earlier work
anti-ILA Antiserum [7] = settings: cited from earlier work
anti-DCF mAb [8] = settings: anti-DCF antibody; cited from earlier work
[9] = calibration curve, dye 2 red coded particles, Alexa Fluor™488 secondary antibody

## Cn1c(=O)c2c(ncn2C)n(C)c1=O [CAF, Coffein]
anti-ILA Antiserum [1]
  Molare Kreuzreaktivität ILA (SAFIA): < 0,1%
[2]
  Molare Kreuzreaktivität CAF (ELISA): 100%
anti-DCF mAb [3]
  Molare Kreuzreaktivität DCF (SAFIA): <0,1%
anti-CBZ mAb [4]
  Molare Kreuzreaktivität CBZ (SAFIA): <0,1%
[5]; [9]
  IC50 "Dye 2 Red": 1,72 ± 0,16 µg/L
[5]
  Molare Kreuzreaktivität CAF (SAFIA): 100%

## O=C(O)COC(=O)Cc1ccccc1Nc1c(Cl)cccc1Cl [Aceclofenac]
anti-ILA Antiserum [1]
  Molare Kreuzreaktivität ILA (SAFIA): <0,1%
anti-DCF mAb [3]
  Molare Kreuzreaktivität DCF (SAFIA): 16,6%
anti-CBZ mAb [4]
  Molare Kreuzreaktivität CBZ (SAFIA): <0,1%
[5]
  Molare Kreuzreaktivität CAF (SAFIA): <0,1%

## NC(=O)N1c2ccccc2C=Cc2ccccc21 [CBZ, Carbamazepin]
anti-CBZ mAb [6]
  Molare Kreuzreaktivität CBZ (ELISA): 100%
anti-ILA Antiserum [1]
  Molare Kreuzreaktivität ILA (SAFIA): < 0,1%
anti-DCF mAb [3]
  Molare Kreuzreaktivität DCF (SAFIA): <0,1%
anti-CBZ mAb [4]; [9]
  IC50 "Dye 2 Red": 1,13 ± 0,07 µg/L
anti-CBZ mAb [4]
  Molare Kreuzreaktivität CBZ (SAFIA): 100%
[5]
  Molare Kreuzreaktivität CAF (SAFIA): <0,1%

## NC(=O)N1c2ccccc2C2OC2c2ccccc21 (centres unmarked) [10,11-Epoxycarbamazepin]
anti-CBZ mAb [6]
  Molare Kreuzreaktivität CBZ (ELISA): 140%
anti-ILA Antiserum [1]
  Molare Kreuzreaktivität ILA (SAFIA): < 0,1%
anti-DCF mAb [3]
  Molare Kreuzreaktivität DCF (SAFIA): <0,1%
anti-CBZ mAb [4]
  Molare Kreuzreaktivität CBZ (SAFIA): 117%
anti-CBZ mAb [4]; listed as Carbamazepin-10,1-L-epoxid
  Molare Kreuzreaktivität CBZ (SAFIA): 118%
[5]
  Molare Kreuzreaktivität CAF (SAFIA): <0,1%

## NC(=O)N1c2ccccc2C=Cc2ccc(O)cc21 [3-Hydroxycarbamazepin]
anti-CBZ mAb [6]
  Molare Kreuzreaktivität CBZ (ELISA): 5,1%
anti-ILA Antiserum [1]
  Molare Kreuzreaktivität ILA (SAFIA): < 0,1%
anti-DCF mAb [3]
  Molare Kreuzreaktivität DCF (SAFIA): <0,1%
anti-CBZ mAb [4]
  Molare Kreuzreaktivität CBZ (SAFIA): 20,2%
[5]
  Molare Kreuzreaktivität CAF (SAFIA): <0,1%

## C[C@H](CCC(=O)O)[C@H]1CC[C@H]2[C@@H]3CC[C@@H]4C[C@@H](O)CC[C@]4(C)[C@H]3CC[C@]12C [ILA, Isolithocholsäure]
anti-ILA Antiserum [7]
  Molare Kreuzreaktivität ILA (ELISA): 100%
anti-ILA Antiserum [1]; [9]
  IC50 "Dye 2 Red": 1,39 ± 0,72 µg/L
anti-ILA Antiserum [1]
  Molare Kreuzreaktivität ILA (SAFIA): 100%
anti-DCF mAb [3]
  Molare Kreuzreaktivität DCF (SAFIA): <0,1%
anti-CBZ mAb [4]
  Molare Kreuzreaktivität CBZ (SAFIA): <0,1%
[5]
  Molare Kreuzreaktivität CAF (SAFIA): <0,1%

## C[C@H](CCC(=O)O)[C@H]1CC[C@H]2[C@@H]3CC[C@@H]4C[C@H](O)CC[C@]4(C)[C@H]3CC[C@]12C [Lithocholsäure]
anti-ILA Antiserum [7]
  Molare Kreuzreaktivität ILA (ELISA): 0,3%
anti-ILA Antiserum [1]
  Molare Kreuzreaktivität ILA (SAFIA): 1,9%
anti-DCF mAb [3]
  Molare Kreuzreaktivität DCF (SAFIA): <0,1%
anti-CBZ mAb [4]
  Molare Kreuzreaktivität CBZ (SAFIA): <0,1%
[5]
  Molare Kreuzreaktivität CAF (SAFIA): <0,1%

## C[C@H](CCC(=O)O)[C@H]1CC[C@H]2[C@@H]3[C@H](O)C[C@@H]4C[C@H](O)CC[C@]4(C)[C@H]3C[C@H](O)[C@]12C [Cholsäure]
anti-ILA Antiserum [7]
  Molare Kreuzreaktivität ILA (ELISA): <0,1%
anti-ILA Antiserum [1]
  Molare Kreuzreaktivität ILA (SAFIA): <0,1%
anti-DCF mAb [3]
  Molare Kreuzreaktivität DCF (SAFIA): <0,1%
anti-CBZ mAb [4]
  Molare Kreuzreaktivität CBZ (SAFIA): <0,1%
[5]
  Molare Kreuzreaktivität CAF (SAFIA): <0,1%

## Cn1cnc2c1c(=O)[nH]c(=O)n2C [Theobromin]
anti-ILA Antiserum [1]
  Molare Kreuzreaktivität ILA (SAFIA): <0,1%
[2]
  Molare Kreuzreaktivität CAF (ELISA): 0,13%
anti-DCF mAb [3]
  Molare Kreuzreaktivität DCF (SAFIA): <0,1%
anti-CBZ mAb [4]
  Molare Kreuzreaktivität CBZ (SAFIA): <0,1%
[5]
  Molare Kreuzreaktivität CAF (SAFIA): 2,0%

## Cn1c(=O)[nH]c2ncn(C)c2c1=O [Paraxanthin]
anti-ILA Antiserum [1]
  Molare Kreuzreaktivität ILA (SAFIA): <0,1%
[2]
  Molare Kreuzreaktivität CAF (ELISA): <0,1%
anti-DCF mAb [3]
  Molare Kreuzreaktivität DCF (SAFIA): <0,1%
anti-CBZ mAb [4]
  Molare Kreuzreaktivität CBZ (SAFIA): <0,1%
[5]
  Molare Kreuzreaktivität CAF (SAFIA): <0,1%

## Cn1c(=O)c2[nH]cnc2n(C)c1=O [Theophyllin]
anti-ILA Antiserum [1]
  Molare Kreuzreaktivität ILA (SAFIA): <0,1%
[2]
  Molare Kreuzreaktivität CAF (ELISA): 12,0%
anti-DCF mAb [3]
  Molare Kreuzreaktivität DCF (SAFIA): <0,1%
anti-CBZ mAb [4]
  Molare Kreuzreaktivität CBZ (SAFIA): <0,1%
[5]
  Molare Kreuzreaktivität CAF (SAFIA): 5,8%

## NC(=O)N1c2ccccc2C(O)C(O)c2ccccc21 (centres unmarked) [10,11-Dihydroxy-carbamazepin]
anti-CBZ mAb [6]
  Molare Kreuzreaktivität CBZ (ELISA): 0,1%
anti-DCF mAb [3]
  Molare Kreuzreaktivität DCF (SAFIA): < 0,1%
anti-CBZ mAb [4]
  Molare Kreuzreaktivität CBZ (SAFIA): 0,3%
[5]
  Molare Kreuzreaktivität CAF (SAFIA): <0,1%

## O=C(O)Cc1ccccc1Nc1c(Cl)cc(O)cc1Cl [4'-Hydroxydiclofenac]
anti-ILA Antiserum [1]
  Molare Kreuzreaktivität ILA (SAFIA): <0,1%
anti-DCF mAb [3]
  Molare Kreuzreaktivität DCF (SAFIA): <0,1%
anti-DCF mAb [8]
  Molare Kreuzreaktivität DCF (ELISA): 11%
anti-CBZ mAb [4]
  Molare Kreuzreaktivität CBZ (SAFIA): <0,1%
[5]
  Molare Kreuzreaktivität CAF (SAFIA): <0,1%

## C[C@H](CCC(=O)NCCS(=O)(=O)O)[C@H]1CC[C@H]2[C@@H]3CC[C@@H]4C[C@H](O)CC[C@]4(C)[C@H]3CC[C@]12C [Taurolithocholsäure]
anti-ILA Antiserum [7]
  Molare Kreuzreaktivität ILA (ELISA): 1,2%
anti-ILA Antiserum [1]
  Molare Kreuzreaktivität ILA (SAFIA): <0,1%
anti-DCF mAb [3]
  Molare Kreuzreaktivität DCF (SAFIA): <0,1%
anti-CBZ mAb [4]
  Molare Kreuzreaktivität CBZ (SAFIA): <0,1%
[5]
  Molare Kreuzreaktivität CAF (SAFIA): <0,1%

## O=C(O)Cc1ccccc1Nc1c(Cl)cccc1Cl [DCF, Diclofenac]
anti-ILA Antiserum [1]
  Molare Kreuzreaktivität ILA (SAFIA): < 0,1%
anti-DCF mAb [3]; [9]
  IC50 "Dye 2 Red": 0,05 ± 0,02 µg/L
anti-DCF mAb [3]
  Molare Kreuzreaktivität DCF (SAFIA): 100%
anti-DCF mAb [8]
  Molare Kreuzreaktivität DCF (ELISA): 100%
anti-CBZ mAb [4]
  Molare Kreuzreaktivität CBZ (SAFIA): <0,1%
[5]
  Molare Kreuzreaktivität CAF (SAFIA): <0,1%

## O=C(O)Cc1cc(O)ccc1Nc1c(Cl)cccc1Cl [5'-Hydroxydiclofenac]
anti-ILA Antiserum [1]
  Molare Kreuzreaktivität ILA (SAFIA): <0,1%
anti-DCF mAb [3]
  Molare Kreuzreaktivität DCF (SAFIA): 9,8%
anti-DCF mAb [8]
  Molare Kreuzreaktivität DCF (ELISA): 13%
anti-CBZ mAb [4]
  Molare Kreuzreaktivität CBZ (SAFIA): <0,1%
[5]
  Molare Kreuzreaktivität CAF (SAFIA): <0,1%
